System: S. epidermidis (Staphilococcus epidermidis)
Assay: MIC by conventional measurement method, S. epidermidis
Type: cell-based
Conditions: 106 cfu/ml, necessary time 18 hours
Source text: The drug susceptibility measurement results are obtained by employing S. epidermidis (Staphilococcus epidermidis), […] (Genus Enterococcus) as bacteria, and by determining an amount of bacteria to be 10^6 cfu/ml. And, PCG (Penicillin G), IPM (Imipenem), MINO (Minocycline), EM (Erythromycin), OFLX (Ofloxacin), ST (Sulfamethoxazole Trimethoprim), […]) are employed as drug.

CC1COc2c(N3CCN(C)CC3)c(F)cc3c(=O)c(C(=O)O)cn1c23 (centres unmarked) [OFLX, Ofloxacin]
(a) MIC values (minimum inhibitory interfering concentration) obtained by a conventional measurement method: ≦1 g g/ml

CN[C@H](CC(C)C)C(=O)N[C@H]1C(=O)N[C@@H](CC(N)=O)C(=O)N[C@H]2C(=O)N[C@H]3C(=O)N[C@H](C(=O)N[C@H](C(=O)O)c4cc(O)cc(O)c4-c4cc3ccc4O)[C@H](O)c3ccc(c(Cl)c3)Oc3cc2cc(c3O[C@@H]2O[C@H](CO)[C@@H](O)[C@H](O)[C@H]2O[C@H]2C[C@](C)(N)[C@H](O)[C@H](C)O2)Oc2ccc(cc2Cl)[C@H]1O [VCM, Vancomycin]
(a) MIC values (minimum inhibitory interfering concentration) obtained by a conventional measurement method: ≦1 g g/ml

CN(C)c1ccc(O)c2c1C[C@H]1C[C@H]3[C@H](N(C)C)C(O)=C(C(N)=O)C(=O)[C@@]3(O)C(O)=C1C2=O [MINO, Minocycline]
(a) MIC values (minimum inhibitory interfering concentration) obtained by a conventional measurement method: ≦0.12 g g/ml

C[C@@H](O)[C@H]1C(=O)N2C(C(=O)O)=C(SCCN=CN)C[C@H]12 [IPM, Imipenem]
(a) MIC values (minimum inhibitory interfering concentration) obtained by a conventional measurement method: ≦1 g g/ml

CC[C@H]1OC(=O)[C@H](C)[C@@H](O[C@H]2C[C@@](C)(OC)[C@@H](O)[C@H](C)O2)[C@H](C)[C@@H](O[C@@H]2O[C@H](C)C[C@H](N(C)C)[C@H]2O)[C@](C)(O)C[C@@H](C)C(=O)[C@H](C)[C@@H](O)[C@]1(C)O [EM, Erythromycin]
(a) MIC values (minimum inhibitory interfering concentration) obtained by a conventional measurement method: ≦0.12 g g/ml
